According to US20030157194A1, “Method for treating cellulite” (priority 2002, published 2003):

Experiments:
cellulite-affected skin [1] = assay: topical treatment of cellulite-affected skin on the sides of a test subject by gliding a solid salt block; assay type: in vivo, human; conditions: person
Description: […] This person may be a afflicted with cellulite on their sides, between their armpits and their waist.
Rather, […] sides are left moistened. Then, […] areas of his sides, by very gently gliding the block in dabbing motions, circular motions, up and down motions, or zigzag motions (the motions being insufficient to cause debridement and abrasion of the affected skin) on the moistened areas for about 15 to about 30 seconds. […]
This once daily application is continued for 5 weeks.

cellulite-affected skin [2] = assay: topical treatment of cellulite-affected skin on thighs and buttocks of female persons by gliding a solid salt block; assay type: in vivo, human

In the case of `[Cl-].[Na+]` [NaCl, sodium chloride], the “state of cellulite on continued application” value (cellulite-affected skin [1]; continued once per day application after 5 weeks) is reported as “remain smooth and free of cellulite”, the “state of cellulite at the end of 5 weeks” value (cellulite-affected skin [1]; pre-moistened skin, once daily, end of 5 weeks) is reported as “completely eliminated” and the “state of cellulite on continued application” value (cellulite-affected skin [2]; female, continued once per day application after 5 weeks) is reported as “remained free of cellulite”. The “state of cellulite at the end of 2 weeks” value (cellulite-affected skin [2]; person, pre-moistened skin, once daily application for about 15 to 30 seconds, end of 2 weeks) was “alleviated” and the “state of cellulite at the end of 5 weeks” value (cellulite-affected skin [2]; person, pre-moistened skin, once daily application, end of 5 weeks) was “completely eliminated”.
